Data taken from paper PMC4001449, “Thienoquinolines as Novel Disruptors of the PKCε/RACK2 Protein–Protein Interaction” (Journal of Medicinal Chemistry, 2014).

What was measured:
PKCε = PKCε translocation, cell fractionation and Western blotting in PC-3 cells; type: cell-based, human; conditions: Figure 3
Experimental: For PKCε translocation PC-3 cells were starved for 16 h, treated with 8 for 30 min, stimulated with 50 nM TPA for 5 min, lysed, and fractionated with a CNMCS/CNM compartmental protein extraction kit (BioChain Institute, Newark, CA). Western blotting was performed by a standard procedure as described by Garczarczyk et al.[27],[40] Cytosolic and membrane fractions were loaded onto SDS gels and transferred to an Immobilon membrane (Millipore, Billerica, MA). The membranes were incubated with rabbit polyclonal IgG antibodies for detection of PKCε (Santa Cruz Biotechnology; dilution 1:2000), for PKCε phosphoSer^729 (Millipore; dilution 1:1000), for PKCδ (Santa Cruz Biotechnology; dilution 1:1000), and for MARCKS phosphoSer152/156 (Cell Signaling Technology, Danvers, MA; dilution 1:1000). For the loading control tubulin (Santa Cruz Biotechnology; dilution 1:1000), and as marker for the membrane fraction, an IGFI-βR rabbit polyclonal IgG antibody (Santa Cruz; dilution 1:1000) and, as secondary antibodies, peroxidase-conjugated AffiniPure goat anti-rabbit IgG (Jackson ImmunoResearch Laboratories, West Grove, PA; dilution 1:20000) were used. GAPDH (Chemicon, Millipore, Billerica, MA; dilution 1:10000) was used as loading control for the cytosolic fraction. […]

HeLa-HLR cells = assay: Cell proliferation (SRB assay), HeLa-HLR; type: cell-based; conditions: 50 μM, 72 h
Experimental: HeLa cells containing a tetracycline/doxycycline-inducible constitutively active PKCε were described previously.[26] A PathDetect HeLa HLR cell line was obtained from Agilent, Technologies, Wokingham, U.K. PC-3 prostate adenocarcinoma cells were obtained from Dr. Helmut Klocker, Department of Urology, Innsbruck Medical University. For cell proliferation HeLa HLR and PC-3 cells were seeded at ∼10 000 cells per well in 96-well plates. After 4 h various concentrations of 8 were added and left for 72 h. Cell proliferation was determined by the SRB assay.[35]

PKCβII/RACK1 interaction = biological target: T1, PKCβII/RACK1 interaction (Homo sapiens, UniProt P63244); assay: PKCβII/RACK1 in vitro binding assay; conditions: Figure 2B
T1 construct: 6-His
Experimental: This assay was similar to the PKCε/RACK2 binding assay described above. 6-his-tagged RACK1 was cloned into a pET-30a(+) vector (Novagen, Merck KGaA, Darmstadt, Germany) and purified with Ni-NTA agarose (Qiagen, Hilden, Germany). Final elution was performed with 500 nM imidazole in elution buffer (20 mM Tris-HCl/300 mM NaCl, 20% glycerol, pH 7.5). The integrity of purified recombinant protein was analyzed by Coomassie Blue staining and Western blotting. Then 200 ng RACK1 was coated onto 96-well EIA/RIA high binding plates (Costar, Corning, New York, NY) at 4 °C on a shaker with gentle agitation overnight. Compound 8 was added at room temperature for 30 min. Then 500 ng of recombinant GST-tagged PKCβII (ProQinase) was activated with CaCl2, phosphatidylserine, and TPA for 10 min. The RACK1-coated plates with and without 8 were incubated for 1 h with activated PKCβII. The interaction was determined with a primary rabbit anti-GST antibody (Santa Cruz) and corresponding HRP-conjugated goat anti-rabbit HRP conjugated secondary antibody (Santa Cruz) as described above for the PKCε/RACK2 interaction.

Prevention of the PKCβII/RACK1 interaction (PKCβII/RACK1 interaction): does not prevent
SMILES: CC(=O)c1cccc(NC(=O)c2sc3nc4cc5c(cc4cc3c2N)OCCO5)c1 [Compound 8, N-(3-acetylphenyl)-9-amino-2,3-dihydro-1,4-dioxino[2,3-g]thieno[2,3-b]quinoline-8-carboxamide]
Ser729-phosphorylated PKCε at the membrane (PKCε; TPA): did not reduce | Translocation of activated and phosphorylated PKCε to the membrane fraction (PKCε; TPA-induced): partially inhibits | Inhibition of cell proliferation (HeLa-HLR cells): did not show any inhibition
